Results from patent US7138361B2, “Herbicidal heterocycles” (E. I. du Pont de Nemours and Company, priority 2000, dated 2006).

Assays:
Format in all cases: in vivo
[1] = system: barnyardgrass (Echinochloa crus-galli); assay: Test B postemergence
How it was run: (§1)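 Pre: seeded pots sprayed, chemical in non-phytotoxic solvent/surfactant mix. Post: plants 2–18 cm, 1–4 leaf, same formulation. Greenhouse 13–15 d; visual % control vs untreated, 0–100 scale.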

corn (Zea mays) = assay: Test B postemergence
How it was run: as §1

[2] = system: wheat (Triticum aestivum); assay: Test B postemergence
How it was run: as §1

wild oat (Avena fatua) = assay: Test B postemergence
How it was run: as §1

[3] = system: barnyardgrass (Echinochloa crus-galli); assay: Test C flooded paddy test; conditions: for Barnyardgrass plant response rating: scale 0 to 100, 0 no effect, 100 complete control
How it was run: (§2)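 Plants were grown to the 2-leaf stage under flooded paddy conditions and treated. They were then kept in a greenhouse for 12 to 14 days and visually rated against untreated controls on a 0–100 scale, where 0 is no effect and 100 is complete control.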

[4] = system: duck salad (Heteranthera limosa); assay: Test C flooded paddy test; conditions: for Ducksalad plant response rating: scale 0 to 100, 0 no effect, 100 complete control
How it was run: as §2

rice (Oryza saliva) = assay: Test C flooded paddy test; conditions: for Rice plant response rating: scale 0 to 100, 0 no effect, 100 complete control
How it was run: as §2

[5] = system: smallflower flatsedge (Cyperus difformis); assay: Test C flooded paddy test; conditions: for Flatsedge plant response rating: Flooded Paddy, scale 0 to 100, 0 no effect, 100 complete control; for Plant response rating, Flatsedge: flooded paddy test, scale 0 to 100 (0 no effect, 100 complete control)
How it was run: as §2

[6] = Rate 125 g/ha, scale 0 (no effect) to 100 (complete control), 13 to 15 days
[7] = Rate 500 g/ha, scale 0 to 100, 0 is no effect, 100 is complete control, 13 to 15 days
[8] = Flooded Paddy, Rate 500 g/ha, scale 0 to 100
[9] = Flooded Paddy, Rate 1000 g/ha, scale 0 to 100
[10] = flooded paddy test, Rate 62 g/ha, scale 0 to 100 (0 no effect, 100 complete control)
[11] = flooded paddy test, Rate 125 g/ha, scale 0 to 100 (0 no effect, 100 complete control)
[12] = Rate 62 g/ha, scale 0 to 100, 0 no effect, 100 complete control
[13] = Rate 250 g/ha, scale 0 (no effect) to 100 (complete control), 13 to 15 days

SMILES	Plant response rating, Barnyardgrass [1, 6]	Plant response rating, Barnyardgrass [1, 7]	Plant response rating, Corn (corn (Zea mays); [6])	Plant response rating, Corn (corn (Zea mays); [7])	Plant response rating, Wheat [2, 6]	Plant response rating, Wheat [2, 7]	Plant response rating, Wild Oat (wild oat (Avena fatua); [6])	Plant response rating, Wild Oat (wild oat (Avena fatua); [7])	Barnyardgrass plant response rating ([3]; Flooded Paddy, Rate 250 g/ha)	Plant response rating, Barnyardgrass [3, 10]	Plant response rating, Barnyardgrass [3, 11]	Ducksalad plant response rating ([4]; Flooded Paddy, Rate 250 g/ha)	Plant response rating, Ducksalad [4, 10]	Plant response rating, Ducksalad [4, 11]	Rice plant response rating (rice (Oryza saliva); Flooded Paddy, Rate 250 g/ha)	Plant response rating, Rice (rice (Oryza saliva); [10])	Plant response rating, Rice (rice (Oryza saliva); [11])	Flatsedge plant response rating ([5]; Rate 250 g/ha)	Flatsedge plant response rating ([5]; Rate 500 g/ha)	Plant response rating, Flatsedge ([5]; Rate 62 g/ha)	other results
CC(C)(C)c1ccn(C2CCN(c3cccc(C(F)(F)F)c3)C2=O)n1 (stereo not shown) [Example 3, 3-[3-(1,1-dimethylethyl)-1H-pyrazol-1-yl]-1-[3-(trifluoromethyl)phenyl]-2-pyrrolidinone]	0	70	0	0	0	0	0	0	100	20	80	80	20	80	50	0	0	100	100	90	Plant response rating, Barnyardgrass [3, 8]: 100; Plant response rating, Barnyardgrass [3, 9]: 100; Plant response rating, Ducksalad [4, 8]: 90; Plant response rating, Ducksalad [4, 9]: 100; Plant response rating, Rice (rice (Oryza saliva); [8]): 60; Plant response rating, Rice (rice (Oryza saliva); [9]): 90; Flatsedge plant response rating ([5]; rate of this column group stands in head line r653, not shown (group before Rate 500 g/ha)): 100; Plant response rating, Flatsedge ([5]; Rate 125 g/ha): 100
CC(C)(C)c1ccn(C2SCN(c3cccc(C(F)(F)F)c3)C2=O)n1 (stereo not shown) [Compound 1]	0	50	0	60	0	30	0	0	30	20	80	90	60	90	0	0	0	100	100	90	Plant response rating, Barnyardgrass [3, 8]: 100; Plant response rating, Ducksalad [4, 8]: 100; Plant response rating, Rice (rice (Oryza saliva); [8]): 50; Plant response rating, Flatsedge ([5]; Rate 125 g/ha): 100
CCC(C)c1nn(C2CCN(c3cccc(C(F)(F)F)c3)C2=O)cc1Cl (stereo not shown) [Compound 13]	0	0	0	0	0	0	20	20													
CC(C)(C)c1ccn(C2OCN(c3cccc(C(F)(F)F)c3)C2=O)n1 (stereo not shown) [compound 9]																					Plant response rating, Barnyardgrass [1, 12]: 0; Plant response rating, Barnyardgrass [1, 13]: 60; Plant response rating, Corn (corn (Zea mays); [12]): 0; Plant response rating, Corn (corn (Zea mays); [13]): 0; Plant response rating, Wheat [2, 12]: 0; Plant response rating, Wheat [2, 13]: 0; Plant response rating, Wild Oat (wild oat (Avena fatua); [12]): 0; Plant response rating, Wild Oat (wild oat (Avena fatua); [13]): 0
CCC(CC)c1ccn(C2OCN(c3cccc(OC(F)(F)F)c3)C2=O)n1 (stereo not shown) [Compound 68]	90	100	0	0	0	0	0	0	100	90	100	100	100	100	30	20	30	100	100	100	Barnyardgrass plant response rating ([3]; Flooded Paddy, Rate 500 g/ha): 100; Ducksalad plant response rating ([4]; Flooded Paddy, Rate 500 g/ha): 100; Rice plant response rating (rice (Oryza saliva); Flooded Paddy, Rate 500 g/ha): 100; Plant response rating, Flatsedge ([5]; Rate 125 g/ha): 100
O=C1C(n2cccn2)CCN1c1cccc(C(F)(F)F)c1 (stereo not shown) [Compound 15]	0	0	0	0	0	0	0	50													
CC1(c2ccn(C3OCN(c4cccc(OC(F)(F)F)c4)C3=O)n2)CC1 (stereo not shown) [Compound 69]	0	90	0	0	0	0	0	0	100	30	30	0	0	0	40	0	20	100	100	100	Barnyardgrass plant response rating ([3]; Flooded Paddy, Rate 500 g/ha): 100; Ducksalad plant response rating ([4]; Flooded Paddy, Rate 500 g/ha): 20; Rice plant response rating (rice (Oryza saliva); Flooded Paddy, Rate 500 g/ha): 80; Plant response rating, Flatsedge ([5]; Rate 125 g/ha): 100
O=C1C(n2cc(Cl)c(C3CC3)n2)CCN1c1cccc(C(F)(F)F)c1 (stereo not shown) [Compound 12]	0	0	0	0	0	0	0	0													
Cc1ccn(C2CCN(c3cccc(C(F)(F)F)c3)C2=O)n1 (stereo not shown) [Compound 16]	0	0	0	0	0	0	0	50													
CC(C)(C)c1nn(C2CCN(c3cccc(C(F)(F)F)c3)C2=O)cc1Cl (stereo not shown) [Compound 14]	0	0	0	0	0	0	0	0													
